Tests used:
Type in all cases: cell-based
Conditions in all cases: 72 hours
EFGR WT (Ba/F3 cells) = target: T1, EFGR WT (Ba/F3 cells) (Homo sapiens, UniProt P00533); assay: MTS assay, Ba/F3 cells, EFGR WT
T1 construct: expressed in transfected cells; host or cells: Ba/F3
Procedure: (§1) The IC50 values of the compounds provided herein were measured against kinases in Ba/F3 cells.
(§2) Activities of representative compounds of the present application in inhibiting EGFR and HER2 were tested by MTS assay (abcam®) for Ba/F3 cells. For assays with Ba/F3 cells, 3000 cells were seeded for per well in 96-well plates and were exposed to the indicated compounds with a concentration of 3.3 to 10 μM for 72 hours.

HER2 WT (Ba/F3 cells) = target: T2, HER2 WT (Ba/F3 cells) (Homo sapiens, UniProt P04626); assay: MTS assay, Ba/F3 cells, HER2 WT
T2 construct: expressed in transfected cells; host or cells: Ba/F3
Procedure: as §1, §2

HER2 YVMA (Ba/F3 cells) = target: T3, HER2 YVMA (Ba/F3 cells) (Homo sapiens, UniProt P04626, INS775YVMA); assay: MTS assay, Ba/F3 cells, HER2 YVMA
T3 construct: expressed in transfected cells; host or cells: Ba/F3
Procedure: as §1, §2

EFGR SVD (Ba/F3 cells) = target: T4, EFGR SVD (Ba/F3 cells) (Homo sapiens, UniProt P00533, INS770SVD); assay: MTS assay, Ba/F3 cells, EFGR SVD
T4 construct: expressed in transfected cells; host or cells: Ba/F3
Procedure: as §1, §2

EFGR ASV (Ba/F3 cells) = target: T5, EFGR ASV (Ba/F3 cells) (Homo sapiens, UniProt P00533, INS769ASV); assay: MTS assay, Ba/F3 cells, EFGR ASV
T5 construct: expressed in transfected cells; host or cells: Ba/F3
Procedure: as §1, §2

HER2 GSP (Ba/F3 cells) = target: T6, HER2 GSP (Ba/F3 cells) (Homo sapiens, UniProt P04626, INS780GSP); assay: MTS assay, Ba/F3 cells, HER2 GSP
T6 construct: expressed in transfected cells; host or cells: Ba/F3
Procedure: as §1, §2

T5 sequence (P00533 with tags, fused parts or gaps INS769ASV): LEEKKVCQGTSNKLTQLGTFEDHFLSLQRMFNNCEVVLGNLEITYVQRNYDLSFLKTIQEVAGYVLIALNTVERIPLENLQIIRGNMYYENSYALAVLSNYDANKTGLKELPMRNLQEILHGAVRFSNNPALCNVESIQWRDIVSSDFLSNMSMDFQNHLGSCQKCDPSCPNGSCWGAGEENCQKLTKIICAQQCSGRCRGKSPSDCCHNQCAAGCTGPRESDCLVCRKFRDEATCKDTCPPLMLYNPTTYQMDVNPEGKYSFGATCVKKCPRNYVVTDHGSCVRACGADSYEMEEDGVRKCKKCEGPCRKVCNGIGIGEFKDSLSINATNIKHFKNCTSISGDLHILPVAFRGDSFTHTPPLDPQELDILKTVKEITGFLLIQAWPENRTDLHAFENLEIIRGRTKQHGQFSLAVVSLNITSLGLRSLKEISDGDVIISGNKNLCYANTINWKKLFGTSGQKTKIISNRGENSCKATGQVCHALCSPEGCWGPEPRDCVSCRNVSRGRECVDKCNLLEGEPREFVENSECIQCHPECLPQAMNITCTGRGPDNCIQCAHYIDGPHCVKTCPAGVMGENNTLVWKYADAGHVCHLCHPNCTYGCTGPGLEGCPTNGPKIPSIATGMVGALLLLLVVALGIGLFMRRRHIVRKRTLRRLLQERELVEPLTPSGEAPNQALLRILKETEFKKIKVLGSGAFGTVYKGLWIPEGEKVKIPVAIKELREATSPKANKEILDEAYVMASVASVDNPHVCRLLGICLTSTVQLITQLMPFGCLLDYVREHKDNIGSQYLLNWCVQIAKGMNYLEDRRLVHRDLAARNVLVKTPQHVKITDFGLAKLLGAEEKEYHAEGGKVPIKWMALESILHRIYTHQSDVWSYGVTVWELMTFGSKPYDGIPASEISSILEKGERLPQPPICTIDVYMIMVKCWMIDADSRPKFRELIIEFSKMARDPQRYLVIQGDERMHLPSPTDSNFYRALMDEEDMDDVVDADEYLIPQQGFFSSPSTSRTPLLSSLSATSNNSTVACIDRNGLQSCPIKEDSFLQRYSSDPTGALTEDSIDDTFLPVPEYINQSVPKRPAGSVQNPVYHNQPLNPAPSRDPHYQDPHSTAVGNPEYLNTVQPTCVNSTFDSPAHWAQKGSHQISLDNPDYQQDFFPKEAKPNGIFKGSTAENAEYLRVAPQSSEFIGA
T2 sequence (P04626 23-1255): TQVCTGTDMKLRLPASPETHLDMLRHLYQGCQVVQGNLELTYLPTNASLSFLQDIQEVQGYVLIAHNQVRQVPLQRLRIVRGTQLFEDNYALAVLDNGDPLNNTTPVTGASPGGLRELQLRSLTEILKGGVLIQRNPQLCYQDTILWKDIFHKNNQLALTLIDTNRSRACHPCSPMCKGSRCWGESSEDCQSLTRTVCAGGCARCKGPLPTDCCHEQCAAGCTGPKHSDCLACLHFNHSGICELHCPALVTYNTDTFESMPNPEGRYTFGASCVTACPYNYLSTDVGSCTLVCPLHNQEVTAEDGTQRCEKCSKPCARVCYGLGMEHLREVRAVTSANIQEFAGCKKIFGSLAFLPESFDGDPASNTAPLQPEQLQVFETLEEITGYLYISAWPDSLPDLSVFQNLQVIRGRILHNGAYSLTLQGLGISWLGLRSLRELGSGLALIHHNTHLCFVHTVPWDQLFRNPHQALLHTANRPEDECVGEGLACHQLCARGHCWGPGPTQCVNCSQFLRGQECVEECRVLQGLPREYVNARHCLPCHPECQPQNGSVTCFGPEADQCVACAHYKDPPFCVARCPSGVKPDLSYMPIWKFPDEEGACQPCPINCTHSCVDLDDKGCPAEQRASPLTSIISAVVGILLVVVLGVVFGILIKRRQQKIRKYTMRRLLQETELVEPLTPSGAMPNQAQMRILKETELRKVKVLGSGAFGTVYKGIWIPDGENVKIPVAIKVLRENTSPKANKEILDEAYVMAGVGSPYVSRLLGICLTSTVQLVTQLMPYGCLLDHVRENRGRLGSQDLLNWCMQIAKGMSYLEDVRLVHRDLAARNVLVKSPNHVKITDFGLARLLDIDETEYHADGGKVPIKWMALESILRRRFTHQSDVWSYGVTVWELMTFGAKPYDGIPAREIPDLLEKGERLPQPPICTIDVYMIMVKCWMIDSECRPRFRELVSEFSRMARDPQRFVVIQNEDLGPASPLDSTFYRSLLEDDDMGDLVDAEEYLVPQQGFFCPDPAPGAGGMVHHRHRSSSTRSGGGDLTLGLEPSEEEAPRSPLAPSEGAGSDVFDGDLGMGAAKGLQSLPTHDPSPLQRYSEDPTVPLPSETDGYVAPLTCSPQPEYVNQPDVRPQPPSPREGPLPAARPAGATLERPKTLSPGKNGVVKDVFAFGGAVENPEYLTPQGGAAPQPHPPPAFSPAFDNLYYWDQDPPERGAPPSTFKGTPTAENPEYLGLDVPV
T6 sequence (P04626 with tags, fused parts or gaps INS780GSP): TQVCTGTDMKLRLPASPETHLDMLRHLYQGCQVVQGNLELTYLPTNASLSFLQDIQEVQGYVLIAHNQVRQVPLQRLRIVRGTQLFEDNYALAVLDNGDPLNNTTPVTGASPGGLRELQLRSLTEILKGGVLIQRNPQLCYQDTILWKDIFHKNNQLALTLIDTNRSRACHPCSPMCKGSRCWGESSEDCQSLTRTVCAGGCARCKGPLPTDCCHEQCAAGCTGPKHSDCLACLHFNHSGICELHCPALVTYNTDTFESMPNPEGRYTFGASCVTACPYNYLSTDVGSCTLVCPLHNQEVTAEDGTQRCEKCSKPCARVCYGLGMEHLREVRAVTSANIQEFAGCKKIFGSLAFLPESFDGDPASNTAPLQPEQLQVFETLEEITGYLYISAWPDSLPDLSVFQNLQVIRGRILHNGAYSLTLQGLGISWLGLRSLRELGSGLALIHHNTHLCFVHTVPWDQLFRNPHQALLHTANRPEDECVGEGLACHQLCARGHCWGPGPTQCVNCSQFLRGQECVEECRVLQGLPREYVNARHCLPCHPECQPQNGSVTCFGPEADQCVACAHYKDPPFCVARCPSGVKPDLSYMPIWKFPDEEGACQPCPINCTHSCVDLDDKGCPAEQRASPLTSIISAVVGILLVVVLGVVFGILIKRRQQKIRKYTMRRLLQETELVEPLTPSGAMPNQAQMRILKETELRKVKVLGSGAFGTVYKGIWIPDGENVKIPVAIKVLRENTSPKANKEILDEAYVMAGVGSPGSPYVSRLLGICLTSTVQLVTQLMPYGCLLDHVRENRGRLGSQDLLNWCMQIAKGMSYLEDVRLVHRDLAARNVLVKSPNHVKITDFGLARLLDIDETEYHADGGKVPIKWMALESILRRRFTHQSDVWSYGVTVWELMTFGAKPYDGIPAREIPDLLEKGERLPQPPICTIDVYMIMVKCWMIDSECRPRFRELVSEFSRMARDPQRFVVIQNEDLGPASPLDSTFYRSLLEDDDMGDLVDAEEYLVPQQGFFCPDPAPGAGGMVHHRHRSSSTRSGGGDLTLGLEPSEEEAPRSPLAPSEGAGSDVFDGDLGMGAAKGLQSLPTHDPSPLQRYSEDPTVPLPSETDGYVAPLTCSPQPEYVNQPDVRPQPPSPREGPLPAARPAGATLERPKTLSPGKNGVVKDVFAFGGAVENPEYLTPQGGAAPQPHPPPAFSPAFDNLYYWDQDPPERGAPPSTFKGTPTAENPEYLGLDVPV
T1 sequence (P00533 25-1210): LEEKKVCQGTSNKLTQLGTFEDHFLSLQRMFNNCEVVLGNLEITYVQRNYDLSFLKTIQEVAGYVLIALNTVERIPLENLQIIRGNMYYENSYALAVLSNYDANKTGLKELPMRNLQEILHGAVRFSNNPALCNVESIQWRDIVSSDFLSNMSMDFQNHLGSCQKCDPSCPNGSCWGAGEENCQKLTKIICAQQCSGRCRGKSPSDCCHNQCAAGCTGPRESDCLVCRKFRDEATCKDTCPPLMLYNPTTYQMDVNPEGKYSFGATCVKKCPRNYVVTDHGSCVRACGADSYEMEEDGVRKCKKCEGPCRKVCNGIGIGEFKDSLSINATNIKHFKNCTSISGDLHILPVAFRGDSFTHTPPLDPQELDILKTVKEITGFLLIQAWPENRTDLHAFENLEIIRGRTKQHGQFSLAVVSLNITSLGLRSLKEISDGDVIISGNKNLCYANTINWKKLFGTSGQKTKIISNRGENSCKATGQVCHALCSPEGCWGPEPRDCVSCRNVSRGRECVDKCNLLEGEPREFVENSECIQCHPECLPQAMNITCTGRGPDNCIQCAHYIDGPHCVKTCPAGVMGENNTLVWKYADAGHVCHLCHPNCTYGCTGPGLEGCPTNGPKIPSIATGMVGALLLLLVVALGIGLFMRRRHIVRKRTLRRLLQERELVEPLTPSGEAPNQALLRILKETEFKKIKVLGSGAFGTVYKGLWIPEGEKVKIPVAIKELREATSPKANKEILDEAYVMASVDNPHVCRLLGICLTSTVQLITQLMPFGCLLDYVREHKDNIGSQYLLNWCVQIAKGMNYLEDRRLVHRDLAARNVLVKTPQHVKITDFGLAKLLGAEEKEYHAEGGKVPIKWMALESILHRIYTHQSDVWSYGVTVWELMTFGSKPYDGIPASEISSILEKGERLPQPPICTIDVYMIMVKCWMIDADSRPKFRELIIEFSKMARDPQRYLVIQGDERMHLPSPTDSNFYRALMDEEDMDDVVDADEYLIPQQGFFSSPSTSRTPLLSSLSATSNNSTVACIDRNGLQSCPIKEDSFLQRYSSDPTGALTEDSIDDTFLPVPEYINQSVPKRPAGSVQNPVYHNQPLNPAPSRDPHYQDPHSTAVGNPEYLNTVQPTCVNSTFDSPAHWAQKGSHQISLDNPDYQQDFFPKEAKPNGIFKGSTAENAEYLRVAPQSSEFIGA

C=CC(=O)N1CCC[C@@H](n2nc(C(=O)Nc3ccc(Cn4cncn4)c(C)c3)c3c(N)ncnc32)C1 [Compound 11]
IC50 (EFGR WT (Ba/F3 cells)): > 10 µM
IC50 (HER2 WT (Ba/F3 cells)): 5.96 µM
IC50 (HER2 YVMA (Ba/F3 cells)): 1.33 µM

C=CC(=O)N1CCC[C@@H](n2nc(C(=O)Nc3ccc(-n4ccnc4)c(C)c3)c3c(N)ncnc32)C1 [Compound 10]
IC50 (HER2 WT (Ba/F3 cells)): 3.43 µM
IC50 (HER2 YVMA (Ba/F3 cells)): 0.58 µM

C=CC(=O)N1CCC[C@@H](n2nc(C(=O)Nc3cc(C)cc(CC(=O)N(C)C)c3)c3c(N)ncnc32)C1 [Compound 5]
IC50 (EFGR WT (Ba/F3 cells)): 8.96 µM
IC50 (EFGR SVD (Ba/F3 cells)): 7.62 µM
IC50 (EFGR ASV (Ba/F3 cells)): 5.72 µM
IC50 (HER2 WT (Ba/F3 cells)): 4.08 µM
IC50 (HER2 YVMA (Ba/F3 cells)): 4.47 µM
IC50 (HER2 GSP (Ba/F3 cells)): 2.39 µM

C=CC(=O)N1CCC[C@@H](n2nc(C(=O)Nc3ccc(Oc4ccn5ncnc5c4)c(Cl)c3)c3c(N)ncnc32)C1 [Compound 3, (R)—N—(4-([1,2,4]triazolo[1,5-a]pyridin-7-yloxy)-3-chlorophenyl)-1-(1-acryloylpiperidin-3-yl)-4-amino-1H-pyrazolo[3,4-d]pyrimicline-3-carboxamide]
IC50 (EFGR WT (Ba/F3 cells)): 2.11 µM
IC50 (EFGR SVD (Ba/F3 cells)): 2.61 µM
IC50 (EFGR ASV (Ba/F3 cells)): 1.46 µM
IC50 (HER2 WT (Ba/F3 cells)): 0.0981 µM
IC50 (HER2 YVMA (Ba/F3 cells)): 0.0455 µM
IC50 (HER2 GSP (Ba/F3 cells)): 0.0786 µM

C=CC(=O)N1CCC[C@@H](n2nc(C(=O)Nc3ccc(C(=O)N4CCn5ccnc5C4)c(C)c3)c3c(N)ncnc32)C1 [Compound 6]
IC50 (EFGR WT (Ba/F3 cells)): 9.42 µM
IC50 (EFGR SVD (Ba/F3 cells)): 7.84 µM
IC50 (EFGR ASV (Ba/F3 cells)): 6.81 µM
IC50 (HER2 WT (Ba/F3 cells)): 5.79 µM
IC50 (HER2 YVMA (Ba/F3 cells)): 7.56 µM
IC50 (HER2 GSP (Ba/F3 cells)): 5.64 µM

C=CC(=O)N1CCC[C@@H](n2nc(C(=O)Nc3ccc(C(=O)N4CCn5ncnc5C4)c(C)c3)c3c(N)ncnc32)C1 [Compound 7]
IC50 (EFGR WT (Ba/F3 cells)): 8.79 µM
IC50 (EFGR SVD (Ba/F3 cells)): 7.72 µM
IC50 (EFGR ASV (Ba/F3 cells)): 6.02 µM
IC50 (HER2 WT (Ba/F3 cells)): 6.3 µM
IC50 (HER2 YVMA (Ba/F3 cells)): 8.84 µM
IC50 (HER2 GSP (Ba/F3 cells)): 6.29 µM

C=CC(=O)N1CCC[C@@H](n2nc(C(=O)Nc3ccc(CN4CCn5ncnc5C4)c(C)c3)c3c(N)ncnc32)C1 [Compound 8]
IC50 (EFGR WT (Ba/F3 cells)): 9.46 µM
IC50 (EFGR SVD (Ba/F3 cells)): 6.75 µM
IC50 (EFGR ASV (Ba/F3 cells)): 4.27 µM
IC50 (HER2 WT (Ba/F3 cells)): 3.24 µM
IC50 (HER2 YVMA (Ba/F3 cells)): 1.85 µM
IC50 (HER2 GSP (Ba/F3 cells)): 1.39 µM

C=CC(=O)N1CCC[C@@H](n2nc(C(=O)Nc3ccc(CC(=O)N(C)C)c(C)c3C)c3c(N)ncnc32)C1 [TAS0728, reference compound]
IC50 (EFGR WT (Ba/F3 cells)): 0.921 µM
IC50 (EFGR SVD (Ba/F3 cells)): 4.48 µM
IC50 (EFGR ASV (Ba/F3 cells)): 3.82 µM
IC50 (HER2 WT (Ba/F3 cells)): 0.164 µM
IC50 (HER2 YVMA (Ba/F3 cells)): 0.206 µM
IC50 (HER2 GSP (Ba/F3 cells)): 0.0643 µM

C=CC(=O)N1CCC[C@@H](n2nc(C(=O)Nc3ccc(CN4CCn5ccnc5C4)c(C)c3)c3c(N)ncnc32)C1 [Compound 9]
IC50 (EFGR WT (Ba/F3 cells)): 7.92 µM
IC50 (EFGR SVD (Ba/F3 cells)): 5.59 µM
IC50 (EFGR ASV (Ba/F3 cells)): 1.98 µM
IC50 (HER2 WT (Ba/F3 cells)): 2.63 µM
IC50 (HER2 YVMA (Ba/F3 cells)): 1.38 µM
IC50 (HER2 GSP (Ba/F3 cells)): 1.29 µM

C=CC(=O)N1CCC[C@@H](n2nc(C(=O)Nc3ccc(Oc4ccn5ncnc5c4)c(C)c3C)c3c(N)ncnc32)C1 [Compound 1, (R)—N—(4-([1,2,4]triazolo[1,5-a]pyridin-7-yloxy)-2,3-dimethylphenyl)-1-(1-acryloylpiperidin-3-yl)-4-amino-1H-pyrazolo[3,4-d]pyrimidine-3-carboxamide]
IC50 (EFGR WT (Ba/F3 cells)): 1.38 µM
IC50 (EFGR SVD (Ba/F3 cells)): 2.62 µM
IC50 (EFGR ASV (Ba/F3 cells)): 1.81 µM
IC50 (HER2 WT (Ba/F3 cells)): 0.111 µM
IC50 (HER2 YVMA (Ba/F3 cells)): 0.0322 µM
IC50 (HER2 GSP (Ba/F3 cells)): 0.0567 µM

C=CC(=O)N1CCC[C@@H](n2nc(C(=O)Nc3ccc(Oc4ccn5ncnc5c4)c(C)c3)c3c(N)ncnc32)C1 [Compound 2, (R)—N—(4-([1,2,4]triazolo[1,5-a]pyridin-7-yloxy)-3-methylphenyl)-1-(1-acryloylpiperidin-3-yl)-4-amino-1H-pyrazolo[3,4-d]pyrimidine-3-carboxamide]
IC50 (EFGR WT (Ba/F3 cells)): 3.27 µM
IC50 (EFGR SVD (Ba/F3 cells)): 3.98 µM
IC50 (EFGR ASV (Ba/F3 cells)): 2.24 µM
IC50 (HER2 WT (Ba/F3 cells)): 0.193 µM
IC50 (HER2 YVMA (Ba/F3 cells)): 0.0559 µM
IC50 (HER2 GSP (Ba/F3 cells)): 0.0958 µM

C=CC(=O)N1CCC[C@@H](n2nc(C(=O)Nc3ccc(Cn4ccnc4)c(C)c3)c3c(N)ncnc32)C1 [Compound 4]
IC50 (EFGR WT (Ba/F3 cells)): 7.16 µM
IC50 (EFGR SVD (Ba/F3 cells)): 6.04 µM
IC50 (EFGR ASV (Ba/F3 cells)): 4.53 µM
IC50 (HER2 WT (Ba/F3 cells)): 3.85 µM
IC50 (HER2 YVMA (Ba/F3 cells)): 3.16 µM
IC50 (HER2 GSP (Ba/F3 cells)): 1.44 µM

From patent US20230295167A1, “POTENT AND SELECTIVE INHIBITORS OF HER2” (DANA-FARBER CANCER INSTITUTE, INC., priority 2020, published 2023)
